Active and inactive are the calls of the source.
What was measured:
Assay type in all cases: functional, organism-based
Mus musculus [1] = test: Antiobesity activity in diet-induced obese C57Bl/6 mouse assessed as reduction in fasting blood glucose compound dosed po for 4 weeks with high-fat diet
Mus musculus [2] = test: Antiobesity activity in diet-induced obese C57Bl/6 mouse assessed as reduction in fat accumulation in liver at 50 mg/kg/day, po for 4 weeks administered with high-fat diet by Oil Red O staining-based histological method
Mus musculus [3] = test: Antiobesity activity in diet-induced obese C57Bl/6 mouse assessed as change in insulin level compound dosed po for 4 weeks with high-fat diet
Mus musculus [4] = test: Decrease in insulin resistance in po dosed diet-induced obese C57Bl/6 mouse assessed as induction of insulin secretion by insulin tolerance test
Mus musculus [5] = test: Antiobesity activity in diet-induced obese C57Bl/6 mouse assessed as reduction in lipid droplets in liver at 50 mg/kg/day, po for 4 weeks administered with high-fat diet by Oil Red O staining-based histological method
Mus musculus [6] = test: Antiobesity activity in diet-induced obese C57Bl/6 mouse assessed as reduction in triglyceride level compound dosed po for 4 weeks with high-fat diet
Mus musculus [7] = test: Antiobesity activity in diet-induced obese C57Bl/6 mouse assessed as normal liver morphology and histology at 50 mg/kg/day, po for 4 weeks administered with high-fat diet by Oil Red O staining-based histological method
Mus musculus [8] = test: Antiobesity activity in diet-induced obese C57Bl/6 mouse assessed as reduction in FFA level compound dosed po for 4 weeks with high-fat diet
Mus musculus [9] = test: Antiobesity activity in diet-induced obese C57Bl/6 mouse assessed as increase in HDL level compound dosed po for 4 weeks with high-fat diet
Mus musculus [10] = test: Antiobesity activity in diet-induced obese C57Bl/6 mouse assessed as alteration of adipose tissue morphology at 20 to 50 mg/kg/day, po for 4 weeks administered with high-fat diet by Oil Red O staining-based histological method
Mus musculus [11] = test: Increase in glucose tolerance in diet-induced obese C57Bl/6 mouse at 20 mg/kg, po as single dose by oral glucose tolerance test; parameters: dose 20 mg/kg
Mus musculus [12] = test: Increase in glucose tolerance in diet-induced obese C57Bl/6 mouse at 50 mg/kg/day, po for 4 weeks by oral glucose tolerance test
Mus musculus [13] = test: Decrease in insulin resistance in diet-induced obese C57Bl/6 mouse assessed as induction of insulin secretion at 20 mg/kg/day, po for 4 weeks by insulin tolerance test
Mus musculus [14] = test: Increase in glucose tolerance in po dosed diet-induced obese C57Bl/6 mouse by oral glucose tolerance test
Mus musculus [15] = test: Increase in glucose tolerance in diet-induced obese C57Bl/6 mouse at 20 mg/kg/day, po for 4 weeks by oral glucose tolerance test
Mus musculus [16] = test: Antiobesity activity in diet-induced obese C57Bl/6 mouse assessed as reduction in fat accumulation in liver at 20 to 50 mg/kg/day, po for 4 weeks administered with high-fat diet by Oil Red O staining-based histological method
Mus musculus [17] = test: Decrease in insulin resistance in diet-induced obese C57Bl/6 mouse assessed as induction of insulin secretion at 50 mg/kg/day, po for 4 weeks by insulin tolerance test
Mus musculus [18] = test: Decrease in insulin resistance in diet-induced obese C57Bl/6 mouse assessed as induction of insulin secretion at 20 mg/kg, po as single dose by insulin tolerance test; parameters: dose 20 mg/kg
Mus musculus [19] = test: Antiobesity activity in diet-induced obese C57Bl/6 mouse assessed as reduction in HOMA-IR value compound dosed po for 4 weeks with high-fat diet
Mus musculus [20] = test: Antiobesity activity in diet-induced obese C57Bl/6 mouse assessed as reduction in LDL level compound dosed po for 4 weeks with high-fat diet
Mus musculus [21] = test: Antiobesity activity in diet-induced obese C57Bl/6 mouse assessed as reduction in size of fat cells at 20 mg/kg/day, po for 4 weeks administered with high-fat diet by Oil Red O staining-based histological method

Measured: Activity

CCn1c(-c2ccc(OCCN(C)c3ccccn3)cc2)nc2c1c(=O)n(Cc1ccccc1C#N)c(=O)n2C
active: Mus musculus [1] Dose-dependent effect | Mus musculus [2] | Mus musculus [3] Dose-dependent effect | Mus musculus [4] Dose-dependent effect | Mus musculus [5] | Mus musculus [6] Dose-dependent effect | Mus musculus [7] | Mus musculus [8] Dose-dependent effect | Mus musculus [9] Dose-dependent effect | Mus musculus [10] | Mus musculus [11] | Mus musculus [12] | Mus musculus [13] | Mus musculus [14] Dose-dependent effect | Mus musculus [15] | Mus musculus [16] | Mus musculus [17] | Mus musculus [18] | Mus musculus [19] Dose-dependent effect | Mus musculus [20] Dose-dependent effect | Mus musculus [21]

From ChEMBL document CHEMBL3352801, “Synthesis and lipid-lowering evaluation of 3-methyl-1H-purine-2,6-dione derivatives as potent and orally available anti-obesity agents” (Eur J Med Chem, 2014)
